Experimental data as given in US11884686B2, “Chelate compounds” (priority 2016, dated 2024).

Legend:
[1] = Dissociation kinetics via Zn2+ transmetallation (T1 relaxation time); format: physicochemical; details: for nature of the kinetic dissociation curve, Zn2+ exchange: time dependent T1, 25° C., pH 5.1-5.7
Procedure: Kinetic inertness was evaluated at slightly acidic pH due to the slow rate of dissociation of the paramagnetic complex at physiological pH and to the potential hydrolysis of the metal ions at the concentrations used for the experiments and at pH values close to physiological.
The dissociation kinetics of Mn(II) based chelates (concentration 1 mM) of the invention was assessed via Zn^2+ transmetallation recording the time-dependent variation of the longitudinal relaxation time (i.e., T1). The assessment was completed in a set of experiments including for the prior art Mn Chelate different concentrations of competing metal ion (5, 10, 20, 40 equivalents of Zn^2+); at 25° C. and different pH (pH: 5.1; 5.4; 5.7). The dissociation kinetics for Mn Chelate 4 (concentration 1 mM) was assessed in the presence of 5 eq of Zn^2+ at 25° C. and pH 5.1 and 5.7. For both assessments, the reaction mixture contained 0.15 M NaCl and 50 mM N-methyl piperazin buffer (i.e., NMP). The longitudinal relaxation time changes were monitored at 1 MHz for the prior art Mn Chelate and at 0.01 MHz for Mn Chelate 4. Indeed, the release of the free Mn^2+ ion induced by Zn^2+ leads to a decrease of the relaxation time for both Mn(II) based chelates evaluated in all experimental conditions. […]
For any of the transmetallation experiments carried out with the prior art Mn Chelate (e.g., at different pH; different Zn^2+ or Cu^2+ concentration) it was evident that the variation of the relaxation rate T1 (for the Zn^2+-exchange; FIG. 4) or the variation of the UV-Vis absorbance (for the Cu^2+-exchange; FIG. 5) caused by competing metal ion was a “single phase” process better described as a mono-exponential function. […] The rate of dissociation described by kobs was calculated via equation (1) where [MnL]tot is the total concentration of Mn(II) based chelates and t is the observation time.

[2] = Dissociation kinetics via Cu2+ transmetallation (UV-Vis absorbance); format: physicochemical; details: pH = 5.0, CCu2+ 0.004 M, 25° C., 0.2 mM chelate

Row | Compound | kinetic inertness from conversion, Zn2+ transmetallation ([1]; FIG. 11, versus prior art Mn Chelate) | nature of the kinetic dissociation curve, Zn2+ exchange [1] | kobs1 [2] [min⁻¹]
1 | CN1CCN2Cc3cccc(n3)CN(CC1)C(CCC(=O)N(C)C[C@H](O)[C@@H](O)[C@H](O)[C@H](O)CO)C(=O)[O][Mn][O]C(=O)C2CCC(=O)N(C)C[C@H](O)[C@@H](O)[C@H](O)[C@H](O)CO (stereo partly shown) [Mn Chelate 4] | superior kinetic inertness | biphasic behaviour | –
2 | CN1CCN2CC(=O)[O][Mn][O]C(=O)CN(CC1)Cc1cccc(n1)C2 [Prior Art Mn Chelate, reference compound] | – | single phase | 0.032
